Test [1] deals with T1, TNFα binding to the TNF receptor (TNFR-ECD) (Homo sapiens, UniProt P01375).
T1 construct: purchased R&D Systems
The experiment in a line: Meso Scale Discovery (MSD) assay of TNFα binding to plate-coated TNFR-ECD. To be noted: MSD assay, TNF 2 ng/ml, 5% DMSO; read-out: EC50 (enhanced binding of TNFα to immobilised ECD-TNFR). As to the method:
384 well uncoated plates (standard binding) Meso Scale Discovery plates (MSD) were coated overnight with the extracellular domain of TNFR (TNFR-ECD) (10 μl, 1 ug/mL in PBS). To ensure even distribution plates were centrifuged at 1000 rpm for 2 minutes. The plates were then sealed and stored at +4° C. overnight.
The wells of the plates were then washed three times in 50 μl phosphate buffered saline pH 6.5 (PB) with 0.05% Tween 20 (wash buffer), and then blocked with 50 μl 2% BSA. The plates were then incubated at room temperature on a shaker (600 rpm) for 2 hours. After this incubation plates were washed (3×50 μl wash buffer per well).
During the blocking incubation, compounds of formulae (1) and (2) were pre-incubated with TNF (R&D Systems) prior to addition to the pre-blocked and washed MSD plates. For a single point assay as shown in FIG. 3A the compounds were assayed at a final concentration of 100 μM (5% final v/v DMSO).
Pre-diluted compounds of formulae (1) and (2) were added at a ratio of 1:1 to 4 ng/mL TNF (final concentration 2 ng/ml), and then incubated at room temperature on a shaker 600 rpm for 1 hour.
10 μl of pre-incubated mixtures of compound of formulae (1) or (2) with TNFα were added to the prepared MSD plate and incubated at room temperature on a shaker for 1 hour.
The plates were then washed with wash buffer (3×50 μl per well). Sulfo-tagged anti-TNF polyclonal antibody was then added to each well and the plates incubated for a further 1.5 hours at room temperature on a shaker.
The plates were then washed (3×50 μl wash buffer per well), followed by the addition of 50 μl MSD Read buffer T plus surfactant (diluted 1 in 2 in H2O) and read on a SECTOR Imager 6000.
For single point assays percentage inhibition was calculated using a control sample without compound.
For EC50s determination results were calculated by standard means using a 4 parameter logistic model (sigmoidal dose response model).

Test [2] addresses TNFα binding to TNF receptor (ECD-TNFR) (Homo sapiens, UniProt P01375). As to the kind of experiment: Biacore in-solution competition/enhancement assay, TNFα/compound mix over immobilised ECD-TNFR. To be noted: Biacore A100/4000, 0.5-1 nM TNFα, highest concentration 20 μM; read-out: EC50 (compound induced enhanced binding of TNFα to TNF receptor). As to the method:
For this purpose a Biacore A100/4000 was used. […] For example a typical assay may use 20 μ[…] solution of compound. […] Control compounds were tested every 10-15 cycles. […] Background subtraction binding curves were analysed using the BIAevaluation software following standard procedures. The EC50 data was determined using a four parameter logistic fit. […] The RU (resonance unit) value for TNFα in the absence of compound was subtracted from the curves so these now show only the increase in binding induced by the compounds. The progress curves plateau at higher RU values as the concentration of compound increases.

Test [3] concerns the target T2, m-TNFα (Mus musculus, UniProt P06804).
T2 sequence (P06804 80-235 limits assumed): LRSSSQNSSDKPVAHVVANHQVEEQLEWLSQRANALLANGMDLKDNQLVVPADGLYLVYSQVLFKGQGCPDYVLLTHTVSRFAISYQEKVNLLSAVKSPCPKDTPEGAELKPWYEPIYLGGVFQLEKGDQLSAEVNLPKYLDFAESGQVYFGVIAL
The experiment in a line: Monomer exchange in TNFα trimers by mass spectrometry, compound pre-incubated with mouse TNFα. It counts as binding. To be noted: for off-rate from m-TNFα: 1:1 complex with m-TNFα mixed with h-TNFα; for cross species monomer subunit exchange: compound preincubated with m-TNFα, then h-TNFα added. As to the method:
Human and mouse homotrimers of TNFα (H3 and M3 respectively) were incubated together and aliquots of the solution monitored by mass spectrometry appearance of the cross species heterotrimers. The mass spectrometric analysis confirmed that monomer exchange between native TNFα trimers was able to occur in solution. The exchange rate was slow and was monitored over a course of 4 hours before full equilibration was achieved (data not shown). The mechanism is unknown, although is it unlikely to involve formation of the dimeric forms as none of these were observed. Monomer exchange is likely to be occurring between pure human and mouse trimers, the mixing of mouse and human trimers simply makes this exchange visible by mass spectrometry.
The experiment was then repeated in reverse. Excess compound of formula 1 was incubated with Mouse TNFα, the excess compound of formula (1) was then removed. Mass Spectral analysis confirmed that a 1:1 complex had been formed between the compound of formula (1) and m-TNFα. Human TNFα was now added to this sample which was then subjected to mass spectral analysis over a number of hours. […] In addition there was evidence of formation of the ligated human homotrimer (H3L), the unligated mouse homotrimer (M3) and for unbound compound of formula (1) (L). […] Once this complex (M3L) has dissociated, monomer subunit exchange between the H3 and M3 species proceeds and the liberated ligand is then able to form complexes with all 4 trimer species present in solution.

Test [4] addresses T3, TNFα (Homo sapiens, UniProt P01375). As to the kind of experiment: Surface plasmon resonance kinetics of compound binding to immobilised TNFα (Biacore T100/T200). To be noted: for dissociation half-life (t1/2): from koff; for kon / koff: immobilised TNFα, HBS-P with 5% DMSO; for koff: read-out: dissociation rate constant (koff). As to the method:
Surface plasmon resonance was used to measure the association rate, the dissociation rate and the affinity of the compounds of formulae (1) and (2) for TNFα (FIGS. 13A and B). For the purpose of this study a Biacore T100/T200 was used.
TNFα was immobilised at pH5 to a level of 5-8 KRU onto a CMS sensor in HBS-P buffer (10 mM HEPES pH 7.4, 0.15 M NaCl, 0.005% Surfactant P20, BIAcore, GE Healthcare). The TNFα was then equilibrated in HBS-P with 5% DMSO for at least 5 hours. The samples were diluted from 10 mM stocks into DMSO matched buffer and left to solubilise for at least 5 hours. The flow rate was 30 μL/min.
This assay was performed by adding 4 or 5 concentrations of compound starting from a highest concentration of 25 μM for compound of formula (1) and 1 μM for compound of formula (2) and then serially diluting this sample. Background subtraction binding curves were analysed using the BIAevaluation software following standard procedures. Binding, affinity and kinetic parameters were determined using Biacore software. The kinetic data were fitted using the levenberg marquardt algorithm.

For test [5], the target named is T3, TNFα. As to the kind of experiment: Fluorescence polarization assay, competition with the compound of formula (4) for TNFα. To be noted: TNFα 50 nM, compound of formula (4) 10 nM, 5% DMSO; read-out: IC50 (inhibition of binding of the compound of formula (4) to TNFα). As to the method: The final concentrations of TNFα and the compound of formula (4) were 50 nM and 10 nM respectively in a total assay volume of 25 μl. Plates were read on an Analyst HT reader. An IC50 was calculated using xlfit (4 parameter logistic model) in Activity Base.
C87 was preincubated with TNFα for 1 hour prior to assay against the fluorescent compound (probe). Competition with the fluorescent compound either directly (binding at the same site) or indirectly (disrupting TNF) is detected by a reduction in FP.
(In general: Polarisation of emitted light reports the rotation of a fluorescent probe.)

Data on two compounds can be found in patent publication US10705094B2, “TNF receptor signaling modulator assay” (UCB Biopharma SRL, priority 2015, dated 2020).

One may read the EC50 as the concentration at which the effect is half-maximal. As a reminder, the Kd is the free concentration of one partner at which half of the binding sites on the other are occupied at equilibrium, for simple one-to-one binding. Usually kon stands for a measure of how fast the partners come together. Low readings indicate slow association, high ones fast association. In general, koff refers to the first-order rate constant of dissociation. A word on the IC50: it is the concentration that gives 50% inhibition. For `Cc1ccc(C)c(Cn2c(C(O)c3ccncc3)nc3ccccc32)c1` (centres unmarked) [Compound (1), [1-(2,5-Dimethylbenzyl)-1H-benzimidazol-2-yl](pyridin-4-yl)methanol], the EC50 in test [1] was determined as 4600 nM. For the same compound, the concentration giving a half-maximal response (EC50) in test [2] amounted to 298 nM. In test [3], the “off-rate from m-TNFα” value is reported as “measurable off-rate” and the “cross species monomer subunit exchange” value was “did not prevent monomer subunit exchange”. The Kd in test [4] (calculated from koff/kon, read-out: dissociation constant (KD)) is 35 nM. In test [4], the “dissociation half-life (t1/2)” value is “over 2 hours”, the on-rate constant (kon) was determined as 2670 M⁻¹ s⁻¹ and the koff was determined as 9.46e-05 s⁻¹. Moreover, the IC50 in test [5] came out at 167 nM.

On to `Cc1ccc(C)c(Cn2c(C(O)c3ccncc3)nc3ccc(-c4cnn(C)c4)cc32)c1` (centres unmarked) [Compound (2), [1-(2,5-Dimethylbenzyl)-6-(1-methyl-1H-pyrazol-4-yl)-1H-benzimidazol-2-yl](pyridin-4-yl)methanol], for which, in test [1], the EC50 came to 3700 nM. The EC50 in test [2] is 280 nM. In test [3], the “off-rate from m-TNFα” value is listed as “no measurable off-rate” and the “cross species monomer subunit exchange” value is on record as “no monomer subunit exchange was observed”. In addition, in test [4], the “dissociation half-life (t1/2)” value is above 8 h, the kon is 1120 M⁻¹ s⁻¹ and the koff turned out to be 2.24e-05 s⁻¹. Also, the IC50 in test [5] was determined as 102 nM.
